ChEMBL document CHEMBL1146903, “Modification of the clozapine structure by parallel synthesis” (Bioorg Med Chem Lett, 2006)

Tests used:
D(1A) dopamine receptor = D(1A) dopamine receptor (Homo sapiens, UniProt P21728); test: Displacement of [3H]SCH 23390 from dopamine D1 receptor expressed in CHO cells; type: cell-based
D(2) dopamine receptor = D(2) dopamine receptor (Homo sapiens, UniProt P14416); test: Displacement of [3H]methylspiperone from dopamine D2 receptor expressed in CHO cells; type: cell-based
Chain of D(2) dopamine receptor (P14416 whole entry): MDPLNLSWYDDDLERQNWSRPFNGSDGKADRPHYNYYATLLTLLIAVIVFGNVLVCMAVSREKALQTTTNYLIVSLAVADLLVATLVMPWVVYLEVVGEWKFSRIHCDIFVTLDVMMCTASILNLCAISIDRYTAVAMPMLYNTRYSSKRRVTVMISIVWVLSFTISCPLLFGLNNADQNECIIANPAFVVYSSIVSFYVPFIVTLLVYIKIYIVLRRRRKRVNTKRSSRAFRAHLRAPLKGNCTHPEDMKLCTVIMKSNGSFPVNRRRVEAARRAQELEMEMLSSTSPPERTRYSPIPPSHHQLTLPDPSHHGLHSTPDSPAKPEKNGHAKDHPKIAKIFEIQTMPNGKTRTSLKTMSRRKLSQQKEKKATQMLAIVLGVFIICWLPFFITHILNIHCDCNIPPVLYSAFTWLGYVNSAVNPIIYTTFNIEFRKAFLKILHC

Chain of D(1A) dopamine receptor (P21728 whole entry): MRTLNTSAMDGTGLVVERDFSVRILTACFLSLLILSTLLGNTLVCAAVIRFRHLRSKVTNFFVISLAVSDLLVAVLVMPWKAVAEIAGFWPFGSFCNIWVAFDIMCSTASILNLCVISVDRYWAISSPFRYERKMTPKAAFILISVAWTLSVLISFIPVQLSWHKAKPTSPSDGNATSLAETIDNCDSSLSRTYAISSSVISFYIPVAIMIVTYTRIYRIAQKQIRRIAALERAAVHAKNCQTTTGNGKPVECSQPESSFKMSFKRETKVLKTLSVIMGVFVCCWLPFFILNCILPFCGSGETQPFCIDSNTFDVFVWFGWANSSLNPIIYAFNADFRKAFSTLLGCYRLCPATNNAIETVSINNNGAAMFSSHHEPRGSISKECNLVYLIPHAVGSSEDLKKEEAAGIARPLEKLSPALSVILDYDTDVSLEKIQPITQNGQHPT

Row | SMILES | Ki (D(1A) dopamine receptor) [nM] | Ki (D(2) dopamine receptor) [nM]
1 | Cc1ccc(S(=O)(=O)N2c3ccc(Cl)cc3N=C(N3CCN(C)CC3)c3ccccc32)cc1 | 65 | 338
2 | Clc1ccc2c(c1)N=C(N1CCN(Cc3cccc4c3OCO4)CC1)c1ccccc1N2 | 637 | 80
3 | CN1CCN(C2=Nc3cc(Cl)ccc3N(NC(=O)c3ccc(C#N)cc3)c3ccccc32)CC1 | 68 | > 2000
4 | CN1CCN(C2=Nc3cc(Cl)ccc3N(C(=O)Nc3cc(Cl)cc(Cl)c3)c3ccccc32)CC1 | 175 | 3900
5 | CN1CCN(C2=Nc3cc(Cl)ccc3N(NC(=O)c3ccc4c(c3)OCO4)c3ccc(Cl)cc32)CC1 | 130 | 286
6 | CC(C)CN1CCN(C2=Nc3cc(Cl)ccc3N(NC(=O)c3ccccc3Cl)c3ccccc32)CC1 | 81 | > 3000
7 | CCC(CC)CN1CCN(C2=Nc3cc(Cl)ccc3N(NC(=O)c3ccccc3Cl)c3ccccc32)CC1 | 505 | > 3000
8 | CN1CCN(C2=Nc3ccccc3N(NC(=O)c3cc(F)c(F)c(F)c3F)c3ccc(Cl)cc32)CC1 | 156 | 759
9 | Fc1ccc(CN2CCN(C3=Nc4cc(Cl)ccc4Nc4ccccc43)CC2)c(F)c1 | 835 | 177
10 | CN1CCN(C2=Nc3ccccc3N(NC(=O)c3cccc(C#N)c3)c3ccc(Cl)cc32)CC1 | 99 | 1190
11 | COc1cccc(C(=O)NN2c3ccccc3N=C(N3CCN(C)CC3)c3cc(Cl)ccc32)c1 | 86 | 1380
12 | CN1CCN(C2=Nc3cc(Cl)ccc3N(NC(=O)c3cc(F)c(F)c(F)c3F)c3ccc(Cl)cc32)CC1 | 98 | 270
13 | CN1CCN(C2=Nc3ccccc3N(NC(=O)c3ccc4c(c3)OCO4)c3ccc(Cl)cc32)CC1 | 83 | 1260
14 | Clc1ccc2c(c1)N=C(N1CCN(Cc3ccc4c(c3)OCCO4)CC1)c1ccccc1N2 | 583 | 29
15 | O=C(NN1c2ccc(Cl)cc2N=C(N2CCN(Cc3ccccc3F)CC2)c2ccccc21)c1ccccc1Cl | 503 | > 2000

Continued by falling Ki (D(1A) dopamine receptor), values first:

Row | Ki (D(1A) dopamine receptor) [nM] | Ki (D(2) dopamine receptor) [nM] | SMILES
16 | 64 | 1970 | CN1CCN(C2=Nc3ccccc3N(NC(=O)c3ccc(C#N)cc3)c3ccc(Cl)cc32)CC1
17 | 62 | 3650 | CN1CCN(C2=Nc3cc(Cl)ccc3N(NC(=O)c3cccc(C#N)c3)c3ccccc32)CC1
18 | 60 | 202 | COc1ccccc1CNN1c2ccc(Cl)cc2N=C(N2CCN(C)CC2)c2ccccc21
19 | 56 | 828 | CN1CCN(C2=Nc3cc(Cl)ccc3N(NC(=O)c3ccc4c(c3)OCO4)c3ccccc32)CC1
20 | 47 | 175 | CN1CCN(C2=Nc3cc(Cl)ccc3N(NC(=O)c3cccc(C#N)c3)c3ccc(Cl)cc32)CC1
21 | 32 | 1280 | CN1CCN(C2=Nc3cc(Cl)ccc3N(NC(=O)c3cc(F)c(F)c(F)c3F)c3ccccc32)CC1
22 | 26 | 409 | CCCN1CCN(C2=Nc3cc(Cl)ccc3N(NC(=O)c3ccccc3Cl)c3ccccc32)CC1
23 | 22 | 421 | CN1CCN(C2=Nc3ccccc3N(NC(=O)c3cc(F)ccc3C(F)(F)F)c3ccc(Cl)cc32)CC1
24 | 16 | 267 | COc1cc(C(=O)NN2c3ccc(Cl)cc3N=C(N3CCN(C)CC3)c3cc(Cl)ccc32)cc(OC)c1OC
25 | 12 | 36 | CN1CCN(C2=Nc3cc(Cl)ccc3N(NC(=O)c3ccccc3I)c3ccc(Cl)cc32)CC1
26 | 11 | 97 | COc1cccc(OC)c1C(=O)NN1c2ccc(Cl)cc2N=C(N2CCN(C)CC2)c2cc(Cl)ccc21
27 | 7 | 231 | CN1CCN(C2=Nc3ccccc3N(NC(=O)c3ccccc3I)c3ccc(Cl)cc32)CC1
28 | 6 | 197 | COc1cccc(OC)c1C(=O)NN1c2ccccc2N=C(N2CCN(C)CC2)c2cc(Cl)ccc21
29 | 4.1 | – | CN1CCN(C2=Nc3cc(Cl)ccc3N(NC(=O)c3ccccc3Cl)c3ccccc32)CC1
